Values quoted from earlier work in the Kinase Knowledgebase extract (Sharma et al. 2016).

biological target: EGFR (UniProt P00533)
Sequence (P00533 whole entry, looked up): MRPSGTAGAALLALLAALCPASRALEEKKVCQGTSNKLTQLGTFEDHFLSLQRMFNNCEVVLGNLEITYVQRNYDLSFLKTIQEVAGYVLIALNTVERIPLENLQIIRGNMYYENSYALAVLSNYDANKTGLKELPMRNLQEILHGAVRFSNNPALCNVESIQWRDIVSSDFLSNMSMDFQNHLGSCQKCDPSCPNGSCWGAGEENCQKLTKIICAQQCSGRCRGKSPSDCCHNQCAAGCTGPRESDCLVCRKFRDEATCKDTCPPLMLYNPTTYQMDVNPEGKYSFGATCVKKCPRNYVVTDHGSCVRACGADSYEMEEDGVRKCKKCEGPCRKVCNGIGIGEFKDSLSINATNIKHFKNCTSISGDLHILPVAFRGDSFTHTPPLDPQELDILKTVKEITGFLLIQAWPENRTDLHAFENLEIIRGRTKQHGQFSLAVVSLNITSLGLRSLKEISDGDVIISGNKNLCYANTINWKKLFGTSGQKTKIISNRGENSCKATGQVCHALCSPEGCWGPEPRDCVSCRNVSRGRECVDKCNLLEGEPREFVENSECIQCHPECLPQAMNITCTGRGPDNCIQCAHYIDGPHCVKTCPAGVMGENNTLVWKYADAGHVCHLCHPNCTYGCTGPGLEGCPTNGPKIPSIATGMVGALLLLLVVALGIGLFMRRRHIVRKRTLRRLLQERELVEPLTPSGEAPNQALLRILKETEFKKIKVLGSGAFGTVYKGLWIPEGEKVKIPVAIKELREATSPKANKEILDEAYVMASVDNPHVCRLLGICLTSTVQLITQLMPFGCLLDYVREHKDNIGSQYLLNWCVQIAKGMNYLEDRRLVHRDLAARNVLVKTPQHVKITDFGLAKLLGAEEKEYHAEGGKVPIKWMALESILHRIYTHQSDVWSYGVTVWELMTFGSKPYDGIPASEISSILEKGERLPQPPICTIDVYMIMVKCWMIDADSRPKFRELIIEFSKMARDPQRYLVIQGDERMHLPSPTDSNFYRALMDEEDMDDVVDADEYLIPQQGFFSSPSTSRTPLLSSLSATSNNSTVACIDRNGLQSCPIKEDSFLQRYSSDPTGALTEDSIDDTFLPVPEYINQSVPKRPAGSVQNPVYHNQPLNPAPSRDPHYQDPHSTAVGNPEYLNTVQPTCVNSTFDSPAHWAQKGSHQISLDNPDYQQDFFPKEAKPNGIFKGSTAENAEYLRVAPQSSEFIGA

IC50 | SMILES
500 nM | COc1cc2c(Nc3cccc(C)c3F)ncnc2cc1OCC1CCNCC1
200 nM | COc1cc2c(Nc3cccc(Br)c3F)ncnc2cc1OCCC1CCN(C)CC1
1000 nM | COc1cc2c(Nc3cccc(C)c3F)ncnc2cc1OCC1CCN(C)CC1
500 nM | COc1cc2c(Nc3cc(F)cc(Cl)c3F)ncnc2cc1OCC1CCNCC1
300 nM | COc1cc2c(Nc3cccc(Cl)c3F)ncnc2cc1OCCN(C)c1ccncc1
100 nM | COc1cc2c(Nc3cccc(Br)c3F)ncnc2cc1OC/C=C/CN1CCCC1
100 nM | COc1cc2c(Nc3cccc(Cl)c3F)ncnc2cc1OCCCN1CCCC1
100 nM | COc1cc2c(Nc3cccc(Cl)c3F)ncnc2cc1OC[C@@H]1CCCN(C)C1
100 nM | COc1cc2c(Nc3cccc(Br)c3F)ncnc2cc1OC[C@H]1CCCN(C)C1
794 nM | COc1cc2c(Nc3cccc(C#N)c3F)ncnc2cc1OC/C=C/CN1CCCC1
200 nM | COc1cc2c(Nc3cccc(Br)c3F)ncnc2cc1OCC1CCNCC1
100 nM | COc1cc2c(Nc3cccc(Br)c3F)ncnc2cc1OCCCN1CCN(C)CC1
398 nM | COc1cc2c(Nc3cccc(Cl)c3F)ncnc2cc1OCCN1CCOCC1
100 nM | COc1cc2c(Nc3ccc(O)c(Cl)c3F)ncnc2cc1OCC1CCN(C)CC1
100 nM | COCCOc1cc2ncnc(Nc3cccc(Cl)c3F)c2cc1OC
76 nM | COc1cc2c(Nc3cccc(Cl)c3F)ncnc2cc1OCCCN1CCN(C)CC1
100 nM | COc1cc2c(Nc3cccc(Cl)c3F)ncnc2cc1OCCCN1CCOCC1
89 nM | COc1cc2c(Nc3cccc(Cl)c3F)ncnc2cc1OC/C=C/CN1CCCC1
300 nM | COc1cc2c(Nc3cccc(Cl)c3F)ncnc2cc1OCCC1CCN(C)CC1
200 nM | COc1cc2c(Nc3cccc(Br)c3F)ncnc2cc1OCCC1CCNCC1
200 nM | COc1cc2c(Nc3cccc(Br)c3F)ncnc2cc1OC[C@@H]1CCCN(C)C1
450 nM | COc1cc2c(Nc3cc(F)cc(Cl)c3F)ncnc2cc1OCC1CCN(C)CC1
300 nM | COc1cc2c(Nc3cccc(Cl)c3F)ncnc2cc1OCC1CCNCC1
200 nM | COc1cc2c(Nc3cccc(Cl)c3F)ncnc2cc1OCCN1CCN(C)CC1

More lines, now with the values behind:

SMILES | IC50
CN(C)CCCNc1cc2ncnc(Nc3cccc(Br)c3)c2cn1 | 8 nM
Clc1ncc2ncnc(Nc3cccc(Br)c3)c2n1 | 81 nM
COc1cc2c(Nc3ccc(O)c(C)c3F)ncnc2cc1OCC1CCN(C)CC1 | 300 nM
c1ccc(Nc2ncnc3[nH]c4ccccc4c23)cc1 | 6920 nM
CN(CC(=O)O)c1cc2ncnc(Nc3cccc(Br)c3)c2cn1 | 15 nM
O=C(O)c1ccc(-c2cc3c(Nc4cccc(Cl)c4)ncnc3[nH]2)cc1 | 1 nM
CN(CC(O)C(O)C(O)C(O)CO)c1cc2ncnc(Nc3cccc(Br)c3)c2cn1 (stereo unspecified) | 3 nM
COc1ccc(-c2cc3c(Nc4cccc(Cl)c4)ncnc3[nH]2)cc1 | 15.1 nM
CN(C)CCCCCNc1cc2ncnc(Nc3cccc(Br)c3)c2cn1 | 8.3 nM
CNc1ncc2ncnc(Nc3cccc(Br)c3)c2n1 | 0.75 nM
CN(CCO)c1cc2ncnc(Nc3cccc(Br)c3)c2cn1 | 2 nM
Oc1ccc(-c2cc3c(Nc4cccc(Cl)c4)ncnc3[nH]2)cc1 | 3 nM
NNc1cc2ncnc(Nc3cccc(Br)c3)c2cn1 | 7 nM
Cc1cccc(Nc2ncnc3cc(NCCCn4ccnc4)ncc23)c1 | 3.4 nM
OCCNc1cc2ncnc(Nc3cccc(Br)c3)c2cn1 | 0.2 nM
CN(CC(O)CO)c1cc2ncnc(Nc3cccc(Br)c3)c2cn1 (stereo unspecified) | 3 nM

SMILES | IC50
Brc1cccc(Nc2ncnc3cc(NCCN4CCOCC4)ncc23)c1 | 3 nM
CNC(=O)c1cc2c(Nc3cccc(Cl)c3)ncnc2[nH]1 | 3 nM
OCCN(CCO)CCNc1cc2ncnc(Nc3cccc(Br)c3)c2cn1 | 9 nM
Nc1cccc(-c2cc3c(Nc4cccc(Cl)c4)ncnc3[nH]2)c1 | 3.9 nM
CNc1cc2ncnc(Nc3cccc(Br)c3)c2cn1 | 0.1 nM
O=S(=O)(O)CCNc1cc2ncnc(Nc3cccc(Br)c3)c2cn1 | 1 nM
Clc1cccc(Nc2ncnc3[nH]c(-c4ccccn4)cc23)c1 | 7 nM
Nc1ccc(-c2cc3c(Nc4cccc(Cl)c4)ncnc3[nH]2)cc1 | 3 nM
[O-][N+]1(CCCNc2cc3ncnc(Nc4cccc(Br)c4)c3cn2)CCOCC1 | 0.7 nM
COc1cc2c(Nc3cc(F)cc(Br)c3F)ncnc2cc1OCC1CCNCC1 | 450 nM
CNc1cc2ncnc(Nc3cccc(C)c3)c2cn1 | 1 nM
CN(C)c1cc2ncnc(Nc3cccc(Br)c3)c2cn1 | 0.089 nM
O=C(O)CCCNc1cc2ncnc(Nc3cccc(Br)c3)c2cn1 | 0.2 nM
OCC(O)C(O)C(O)C(O)CNc1cc2ncnc(Nc3cccc(Br)c3)c2cn1 (stereo unspecified) | 4 nM
Cc1[nH]c2ncnc(NCc3cccc(Cl)c3)c2c1C | 1070 nM
COc1cc2c(Nc3cc(F)cc(Br)c3F)ncnc2cc1OCC1CCN(C)CC1 | 300 nM
